Measured values: US20200172483A1, “HETEROCYCLIC SMALL MOLECULE MODULATORS OF HUMAN STING” (Curadev Pharma Limited, priority 2017, published 2020)

Target: T1, WT/R232 STING protein (Homo sapiens, UniProt Q86WV6, H232R)
T1 construct: host or cells: HEK293T
Test: Luciferase reporter assay in HEK293T-hSTING-Luciferase cells (R232)
Type: cell-based
Conditions: 20 hr stimulation, EC50 range
Excerpt: • a) Stable STING expressing cells—Stable HEK293T STING-expressing cell lines were generated using plasmids purchased from Invivogen, CA, USA, that contain STING cDNA cloned into the pUNO-1 vector under hEF1-HTLV promoter and containing the Blasticidin selection cassette. The plasmids hSTING (R232), hSTING (H232), hSTING (HAQ) were directly procured from Invivogen while hSTING (AQ) and hSTING (Q) were derived from hSTING (HAQ) and hSTING (R232) plasmids respectively by using a PCR based site directed mutagenesis method. These vectors were individually transfected into HEK293T cells using Lipofectamine (Invitrogen) and transfected cells were selected under Blasticidin selection. These transfected cells were further subjected to clonal selection using the limiting dilution method to obtain clonally pure populations of HEK cells transfected with each of the above mentioned human STING variants. Only those clones were selected in which ligand independent activation of STING was minimal. • b) Stable Luciferase reporter gene expressing cells—Stable HEK293T Luciferase reporter gene expressing cell lines were generated using pCDNA4 plasmids under an IRF-inducible promoter. This promoter is comprised of five tandem interferon-stimulated response elements (ISRE) fused to an ISG54 minimal promoter. This vector was transfected into HEK293T cells using Lipofectamine (Invitrogen) and transfected cells were selected under Zeocin selection. These transfected cells were further subjected to clonal selection using the limiting dilution method to obtain clonally pure populations of HEK cells transfected the Luciferase reporter construct. Only those clones were selected in which ligand independent induction of luciferase was minimal.
5×10^5 clonally selected HEK293T-hSTING-Luciferase cells were seeded in 384-well plates in growth medium and stimulated with novel compounds. After 20 hr of stimulation supernatant were removed and secretary reporter gene activity were measured using the Quanti-Luc detection system (Invivogen) on a Spectramax i3X luminometer.
All compounds were first tested in a primary screen using WT/R232 STING protein to obtain a ‘fold-induction’ over baseline levels of protein activity.

T1 sequence (Q86WV6 whole entry H232R): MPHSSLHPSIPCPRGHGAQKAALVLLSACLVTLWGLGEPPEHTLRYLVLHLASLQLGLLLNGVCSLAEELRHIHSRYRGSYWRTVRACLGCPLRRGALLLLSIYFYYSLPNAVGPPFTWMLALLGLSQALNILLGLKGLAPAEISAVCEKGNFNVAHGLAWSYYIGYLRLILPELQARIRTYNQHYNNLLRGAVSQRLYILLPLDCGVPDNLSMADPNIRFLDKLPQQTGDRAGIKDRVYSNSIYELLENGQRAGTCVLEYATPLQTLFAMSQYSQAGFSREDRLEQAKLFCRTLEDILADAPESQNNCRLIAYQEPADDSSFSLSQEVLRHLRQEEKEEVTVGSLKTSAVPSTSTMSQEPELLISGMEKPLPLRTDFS

| SMILES | EC50 [µM] |
| --- | --- |
| CC1(C)C(=O)N(Cc2c(F)cccc2Cl)c2cc(C(=O)NCc3ccc(N)cc3)ccc21 [Example 85, N-(4-aminobenzyl)-1-(2-chloro-6-fluorobenzyl)-3,3-dimethyl-2-oxoindoline-6-carboxamide] | 1 to 10 |
| CC1(C)C(=O)N(Cc2c(F)cccc2Cl)c2cc(C(=O)NCc3ccc4c(c3)OCO4)ccc21 [Example 86, N-(benzo[d][1,3]dioxol-5-ylmethyl)-1-(2-chloro-6-fluorobenzyl)-3,3-dimethyl-2-oxoindoline-6-carboxamide] | 1 to 10 |
| CC1(C)C(=O)N(Cc2c(F)cccc2Cl)c2cc(C(=O)NCc3cccc4c3OCO4)ccc21 [Example 87, N-(benzo[d][1,3]dioxol-4-ylmethyl)-1-(2-chloro-6-fluorobenzyl)-3,3-dimethyl-2-oxoindoline-6-carboxamide] | > 10 |
| CC1(C)C(=O)N(Cc2c(F)cccc2Cl)c2cc(C(=O)NCc3cc4cc(O)ccc4o3)ccc21 [Example 88, 1-(2-chloro-6-fluorobenzyl)-N-((5-hydroxybenzofuran-2-yl)methyl)-3,3-dimethyl-2-oxoindoline-6-carboxamide] | 1 to 10 |
| Cc1oc(-c2ccccc2)nc1CN1C(=O)C(C)(C)c2ccc(C(=O)NCc3c(F)cc(F)cc3F)cc21 [Example 91, 3,3-dimethyl-1-((5-methyl-2-phenyloxazol-4-yl)methyl)-2-oxo-N-(2,4,6-trifluorobenzyl)indoline-6-carboxamide] | > 10 |
| CC1(C)C(=O)N(Cc2c(F)cccc2Cl)c2cc(C(=O)NCc3cccc4occc34)ccc21 [Example 93, N-(benzofuran-4-ylmethyl)-1-(2-chloro-6-fluorobenzyl)-3,3-dimethyl-2-oxoindoline-6-carboxamide] | > 10 |
| CC1(C)C(=O)N(Cc2c(F)cccc2Cl)c2cc(C(=O)NCc3cc4cc([N+](=O)[O-])ccc4o3)ccc21 [Example 94, 1-(2-chloro-6-fluorobenzyl)-3,3-dimethyl-N-((5-nitrobenzofuran-2-yl)methyl)-2-oxoindoline-6-carboxamide] | 1 to 10 |
| CC1(C)C(=O)N(Cc2c(F)cccc2Cl)c2cc(C(=O)NCc3ccc4c(c3)CC(=O)N4)ccc21 [Example 95, 1-(2-chloro-6-fluorobenzyl)-3,3-dimethyl-2-oxo-N-((2-oxoindolin-5-yl)methyl)indoline-6-carboxamide] | > 10 |
| Cn1ncc2cccc(CN3C(=O)C(C)(C)c4ccc(C(=O)NCc5c(F)cc(F)cc5F)cc43)c21 [Example 96, 3,3-dimethyl-1-((1-methyl-1H-indazol-7-yl)methyl)-2-oxo-N-(2,4,6-trifluorobenzyl)indoline-6-carboxamide] | 1 to 10 |
| CC1(C)C(=O)N(Cc2ccccn2)c2cc(C(=O)NCc3c(F)cc(F)cc3F)ccc21 [Example 99, 3,3-dimethyl-2-oxo-1-(pyridin-2-ylmethyl)-N-(2,4,6-trifluorobenzyl)indoline-6-carboxamide] | 1 to 10 |
| CC1(C)C(=O)N(Cc2nc3ccccc3o2)c2cc(C(=O)NCc3c(F)cc(F)cc3F)ccc21 [Example 101, 1-(benzo[d]oxazol-2-ylmethyl)-3,3-dimethyl-2-oxo-N-(2,4,6-trifluorobenzyl)indoline-6-carboxamide] | > 10 |
| CC1(C)C(=O)N(Cc2cccc3c2OC(F)(F)O3)c2cc(C(=O)NCc3c(F)cc(F)cc3F)ccc21 [Example 105, 1-((2,2-difluorobenzo[d][1,3]dioxol-4-yl)methyl)-3,3-dimethyl-2-oxo-N-(2,4,6-trifluorobenzyl)indoline-6-carboxamide] | 1 to 10 |
| Cc1cccc(C)c1CN1C(=O)C(C)(C)c2ccc(C(=O)NCc3c(F)cc(F)cc3F)cc21 [Example 110, 1-(2,6-dimethylbenzyl)-3,3-dimethyl-2-oxo-N-(2,4,6-trifluorobenzyl)indoline-6-carboxamide] | 1 to 10 |
| Cn1nc(C(F)(F)F)cc1CN1C(=O)C(C)(C)c2ccc(C(=O)NCc3c(F)cc(F)cc3F)cc21 [Example 113, 3,3-dimethyl-1-((1-methyl-3-(trifluoromethyl)-1H-pyrazol-5-yl)methyl)-2-oxo-N-(2,4,6-trifluorobenzyl)indoline-6-carboxamide] | 1 to 10 |
| CC1(C)C(=O)N(Cc2ccc(C(N)=O)cc2)c2cc(C(=O)NCc3c(F)cc(F)cc3F)ccc21 [Example 120, 1-(4-carbamoylbenzyl)-3,3-dimethyl-2-oxo-N-(2,4,6-trifluorobenzyl)indoline-6-carboxamide] | > 10 |
| CC1(C)C(=O)N(Cc2ccc(C(N)=O)cc2F)c2cc(C(=O)NCc3c(F)cc(F)cc3F)ccc21 [Example 121, 1-(4-carbamoyl-2-fluorobenzyl)-3,3-dimethyl-2-oxo-N-(2,4,6-trifluorobenzyl)indoline-6-carboxamide] | 1 to 10 |

| SMILES | EC50 [µM] |
| --- | --- |
| Cc1ccc(CNC(=O)c2ccc3c(c2)N(Cc2ccc(F)c(F)c2)C(=O)C3(C)C)o1 [Example 122, 1-(3,4-difluorobenzyl)-3,3-dimethyl-N-((5-methylfuran-2-yl)methyl)-2-oxoindoline-6-carboxamide] | 1 to 10 |
| Cc1ccc(CNC(=O)c2ccc3c(c2)N(C(C)c2ccc(F)cc2)C(=O)C3(C)C)o1 (stereo not shown) [Example 123, 1-(1-(4-fluorophenyl)ethyl)-3,3-dimethyl-N-((5-methylfuran-2-yl)methyl)-2-oxoindoline-6-carboxamide] | 1 to 10 |
| Cc1ccc(CN2C(=O)C(C)(C)c3ccc(C(=O)NCc4cc(F)cc(F)c4)cc32)o1 [Example 125, N-(3,5-difluorobenzyl)-3,3-dimethyl-1-((5-methylfuran-2-yl)methyl)-2-oxoindoline-6-carboxamide] | > 10 |
| Cc1cnc(CNC(=O)c2ccc3c(c2)N(Cc2c(F)cccc2Cl)C(=O)C3(C)C)o1 [Example 126, 1-(2-chloro-6-fluorobenzyl)-3,3-dimethyl-N-((5-methyloxazol-2-yl)methyl)-2-oxoindoline-6-carboxamide] | 1 to 10 |
| Cn1cccc1CNC(=O)c1ccc2c(c1)N(Cc1c(F)cccc1Cl)C(=O)C2(C)C [Example 127, 1-(2-chloro-6-fluorobenzyl)-3,3-dimethyl-N-((1-methyl-1H-pyrrol-2-yl)methyl)-2-oxoindoline-6-carboxamide] | > 10 |
| Cc1ncc(CN2C(=O)C(C)(C)c3ccc(C(=O)NCc4c(F)cc(F)cc4F)cc32)o1 [Example 128, 3,3-dimethyl-1-((2-methyloxazol-5-yl)methyl)-2-oxo-N-(2,4,6-trifluorobenzyl)indoline-6-carboxamide] | > 10 |
| Cc1ccc(-c2nc(CN3C(=O)C(C)(C)c4ccc(C(=O)NCc5c(F)cc(F)cc5F)cc43)c(C)o2)cc1 [Example 129, 3,3-dimethyl-1-((5-methyl-2-(p-tolyl)oxazol-4-yl)methyl)-2-oxo-N-(2,4,6-trifluorobenzyl)indoline-6-carboxamide] | > 10 |
| CC1(C)C(=O)N(Cc2cc3ccccc3o2)c2cc(C(=O)NCc3c(F)cc(F)cc3F)ccc21 [Example 131, 1-(benzofuran-2-ylmethyl)-3,3-dimethyl-2-oxo-N-(2,4,6-trifluorobenzyl)indoline-6-carboxamide] | > 10 |
| CC1(C)CN(C(=O)c2c(F)cccc2Cl)c2cc(C(=O)NCc3ccco3)ccc21 [Example 132, 1-(2-chloro-6-fluorobenzoyl)-N-(furan-2-ylmethyl)-3,3-dimethylindoline-6-carboxamide] | > 10 |
| O=C(NCc1ccco1)c1ccc2c(c1)N(Cc1ccccc1F)C(=O)C2(F)F [Example 133, 3.3-Difluoro-1-(2-fluorobenzyl)-N-(furan-2-ylmethyl)-2-oxoindoline-6-carboxamide] | > 10 |
| CC1(C)c2ccc(C(=O)NCc3c(F)cc(F)cc3F)cc2N(Cc2c(F)cccc2Cl)S1(=O)=O [Example 134, 1-(2-Chloro-6-fluorobenzyl)-3,3-dimethyl-N-(2,4,6-trifluorobenzyl)-1,3-dihydrobenzo[c]isothiazole-6-carboxamide 2,2-dioxide] | > 10 |
| O=C(NCc1ccco1)c1ccc2c(c1)N(C(=O)c1c(F)cccc1Cl)CC2 [Example 135, 1-(2-chloro-6-fluorobenzoyl)-N-(furan-2-ylmethyl)indoline-6-carboxamide] | > 10 |
| O=C(NCc1c(F)cc(F)cc1F)c1ccc2c(c1)N(Cc1cc(F)cc(F)c1)C(=O)C21CCCCC1 [Example 138] | > 10 |
| O=C(NCc1ccco1)c1ccc2c(c1)N(Cc1c(F)cccc1Cl)C(=O)C21CC1 [Example 139, 1′-(2-chloro-6-fluorobenzyl)-N-(furan-2-ylmethyl)-2′-oxospiro[cyclopropane-1,3′-indoline]-6′-carboxamide] | > 10 |
| O=C(NCc1ccco1)c1ccc2c(c1)N(Cc1c(F)cccc1Cl)S(=O)(=O)C2 [Example 140, 1-(2-chloro-6-fluorobenzyl)-N-(furan-2-ylmethyl)-1,3-dihydrobenzo[c]isothiazole-6-carboxamide 2,2-dioxide] | > 10 |
